In PubChem BioAssay AID248 (DTP/NCI, 2004):
Values joined by “and” are separate entries in the source; they are usually repeats but may differ in a detail not shown here. Identical values can stand only once. Toxic doses and inconclusive results are not listed. Rule as the data show it: active = T/C of 150% or more; inactive = T/C below 125%.

Tested on: L1210 leukemia ip in BDF1 mice, survival T/C
Assay: NCI In Vivo Anticancer Drug Screen. Data for tumor model L1210 Leukemia (intraperitoneal) in B6D2F1 (BDF1) mice
Conditions: endpoint: mean survival time, higher = longer survival
Summary of the method: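 Tumor was transplanted into mice, which were then dosed with test compound or vehicle alone. Survival was recorded for each group, and the treated figure was expressed relative to the control figure.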

[1] = dose: 50.0 mg/kg/injection, schedule: Q01DX009 (ip), vehicle: Klucel (hydroxypropylcellulose) (HPC)
[2] = dose: 100.0 mg/kg/injection, schedule: Q01DX009 (ip), vehicle: Klucel (hydroxypropylcellulose) (HPC)
[3] = dose: 200.0 mg/kg/injection, schedule: Q01DX009 (ip), vehicle: Klucel (hydroxypropylcellulose) (HPC)
[4] = dose: 25.0 mg/kg/injection, schedule: Q04DX003 (ip), vehicle: Klucel (hydroxypropylcellulose) (HPC)
[5] = dose: 200.0 mg/kg/injection, schedule: Q01DX001 (ip), vehicle: saline
[6] = dose: 100.0 mg/kg/injection, schedule: Q01DX001 (ip), vehicle: saline
[7] = dose: 400.0 mg/kg/injection, schedule: Q01DX001 (ip), vehicle: saline
[8] = dose: 100.0 mg/kg/injection, schedule: Q04DX003 (ip), vehicle: Klucel (hydroxypropylcellulose) (HPC)

Measured: T/C

Cc1ccc(OC/C=C/CS(=O)(=O)c2ccc(C)cc2)cc1
inactive: [1] 100 % of control | dose: 75.0 mg/kg/injection, schedule: Q01DX001 (ip), vehicle: Klucel (hydroxypropylcellulose) (HPC) 93 % of control | [2] 98 % of control | dose: 150.0 mg/kg/injection, schedule: Q01DX001 (ip), vehicle: Klucel (hydroxypropylcellulose) (HPC) 98 % of control | [3] 98 % of control | dose: 300.0 mg/kg/injection, schedule: Q01DX001 (ip), vehicle: Klucel (hydroxypropylcellulose) (HPC) 95 % of control

CC1=C(Cl)C(Cl)(Cl)C(=O)C(=O)C1(Cl)Cl
inactive: dose: 6.25 mg/kg/injection, schedule: Q01DX009 (ip), vehicle: saline sonified 100 % of control | dose: 6.25 mg/kg/injection, schedule: Q04DX003 (ip), vehicle: Klucel (hydroxypropylcellulose) (HPC) 100 % of control | dose: 12.5 mg/kg/injection, schedule: Q01DX009 (ip), vehicle: saline sonified 102 % of control | dose: 12.5 mg/kg/injection, schedule: Q04DX003 (ip), vehicle: Klucel (hydroxypropylcellulose) (HPC) 95 % of control | dose: 25.0 mg/kg/injection, schedule: Q01DX009 (ip), vehicle: saline sonified 92 % of control | [4] 95 % of control

COc1ccc2c(c1)sc1ncnc(N)c12
inactive: [1] 105 % of control | [2] 105 % of control | [3] 101 % of control

CC(c1ccccc1)c1ccc(O)cc1 (stereo unspecified)
inactive: dose: 100.0 mg/kg/injection, schedule: Q01DX009 (ip), vehicle: saline sonified 97 % of control | dose: 200.0 mg/kg/injection, schedule: Q01DX009 (ip), vehicle: saline sonified 95 % of control | dose: 400.0 mg/kg/injection, schedule: Q01DX009 (ip), vehicle: saline sonified 97 % of control

CC1C(N2CCCCC2)CS1(=O)=O (stereo unspecified)
inactive: dose: 100.0 mg/kg/injection, schedule: Q04DX002 (ip), vehicle: saline 121 % of control

COC(=O)c1ccccc1NC(=O)Cc1ccccc1
inactive: [2] 91 % of control | [3] 98 % of control | dose: 400.0 mg/kg/injection, schedule: Q01DX009 (ip), vehicle: Klucel (hydroxypropylcellulose) (HPC) 98 % of control

c1ccc2cc(CCSSCCc3ccc4ccccc4c3)ccc2c1
inactive: [5] 87 % of control

CC(C(=O)Nc1ccc(Cl)c(Cl)c1)C(=O)Nc1ccc(Cl)c(Cl)c1
inactive: dose: 100.0 mg/kg/injection, schedule: Q04DX002 (ip), vehicle: gum acacia 92 % of control | dose: 200.0 mg/kg/injection, schedule: Q04DX002 (ip), vehicle: gum acacia 103 % of control | dose: 400.0 mg/kg/injection, schedule: Q04DX002 (ip), vehicle: gum acacia 99 % of control

CN1C(OO)CCOP1(=O)N(CCCl)CCCl (stereo unspecified)
inactive: dose: 75.0 mg/kg/injection, schedule: Q01DX001 (ip), vehicle: DMSO 96 % of control | dose: 150.0 mg/kg/injection, schedule: Q01DX001 (ip), vehicle: DMSO 99 % of control

COc1ccc(OC)c(/C=C/C=O)c1
inactive: [6] 110 % of control | [5] 96 % of control | [7] 98 % of control

O=C(O)c1ccc(=O)[nH]c1
inactive: dose: 100.0 mg/kg/injection, schedule: Q01DX009 (ip), vehicle: saline 95 % of control | dose: 100.0 mg/kg/injection, schedule: Q04DX003 (ip), vehicle: saline 107 % of control | dose: 200.0 mg/kg/injection, schedule: Q01DX009 (ip), vehicle: saline 96 % of control | dose: 200.0 mg/kg/injection, schedule: Q04DX003 (ip), vehicle: saline 109 % of control | dose: 400.0 mg/kg/injection, schedule: Q01DX009 (ip), vehicle: saline 95 % of control | dose: 400.0 mg/kg/injection, schedule: Q04DX003 (ip), vehicle: saline 104 % of control

O=c1[nH]c(C(F)(F)F)c(Cc2ccccc2)c(=O)[nH]1
inactive: dose: 100.0 mg/kg/injection, schedule: Q01DX001 (ip), vehicle: gum acacia 95 % of control | dose: 200.0 mg/kg/injection, schedule: Q01DX001 (ip), vehicle: gum acacia 107 % of control

N#Cc1ccc(P(=O)(O)O)cc1
inactive: dose: 75.0 mg/kg/injection, schedule: Q01DX001 (ip), vehicle: saline 102 % of control | dose: 150.0 mg/kg/injection, schedule: Q01DX001 (ip), vehicle: saline 94 % of control

CCCN(C(=O)CCl)c1ccccc1
inactive: dose: 12.5 mg/kg/injection, schedule: Q04DX002 (ip), vehicle: Klucel (hydroxypropylcellulose) (HPC) 122 % of control | dose: 25.0 mg/kg/injection, schedule: Q04DX002 (ip), vehicle: Klucel (hydroxypropylcellulose) (HPC) 94 % of control | dose: 50.0 mg/kg/injection, schedule: Q04DX002 (ip), vehicle: Klucel (hydroxypropylcellulose) (HPC) 105 % of control

CC(=O)NCC1CCCCC1
inactive: dose: 25.0 mg/kg/injection, schedule: Q01DX009 (ip), vehicle: Klucel (hydroxypropylcellulose) (HPC) 98 % of control | [4] 100 % of control | [1] 92 % of control | dose: 50.0 mg/kg/injection, schedule: Q04DX003 (ip), vehicle: Klucel (hydroxypropylcellulose) (HPC) 102 % of control | [2] 110 % of control | [8] 105 % of control

N#CC(C#N)=Cc1cccc2ccccc12
inactive: [1] 97 % of control and 91 % of control | [2] 95 % of control and 103 % of control | [8] 102 % of control | [3] 96 % of control and 105 % of control | dose: 200.0 mg/kg/injection, schedule: Q04DX003 (ip), vehicle: Klucel (hydroxypropylcellulose) (HPC) 97 % of control | dose: 400.0 mg/kg/injection, schedule: Q04DX003 (ip), vehicle: Klucel (hydroxypropylcellulose) (HPC) 103 % of control

CC1=CC2CCC1C2 (stereo unspecified)
inactive: dose: 75.0 mg/kg/injection, schedule: Q01DX001 (ip), vehicle: acetone 101 % of control | dose: 150.0 mg/kg/injection, schedule: Q01DX001 (ip), vehicle: acetone 95 % of control

O=N/N=c1/sc2ccccc2n1-c1ccccc1
inactive: dose: 100.0 mg/kg/injection, schedule: Q01DX001 (ip), vehicle: Klucel (hydroxypropylcellulose) (HPC) 103 % of control | dose: 200.0 mg/kg/injection, schedule: Q01DX001 (ip), vehicle: Klucel (hydroxypropylcellulose) (HPC) 94 % of control | dose: 400.0 mg/kg/injection, schedule: Q01DX001 (ip), vehicle: Klucel (hydroxypropylcellulose) (HPC) 100 % of control

CC(=O)Nc1ccc(S(C)(=O)=O)cc1I
inactive: dose: 100.0 mg/kg/injection, schedule: Q01DX001 (ip), vehicle: carboxymethylcellulose (CMC) 93 % of control | dose: 200.0 mg/kg/injection, schedule: Q01DX001 (ip), vehicle: carboxymethylcellulose (CMC) 96 % of control | dose: 400.0 mg/kg/injection, schedule: Q01DX001 (ip), vehicle: carboxymethylcellulose (CMC) 91 % of control

COC(=O)c1cc(C)c(C)cc1N
inactive: [6] 102 % of control | [5] 96 % of control | [7] 93 % of control

CC1=C(O)c2ccccc2C(=O)C1=O
inactive: dose: 50.0 mg/kg/injection, schedule: Q01DX Z (ip), vehicle: other 93 % of control

CC(C)CC1NC(C)(C)CO1 (stereo unspecified)
inactive: dose: 75.0 mg/kg/injection, schedule: Q01DX001 (ip), vehicle: carboxymethylcellulose (CMC) 102 % of control | dose: 150.0 mg/kg/injection, schedule: Q01DX001 (ip), vehicle: carboxymethylcellulose (CMC) 95 % of control | dose: 300.0 mg/kg/injection, schedule: Q01DX001 (ip), vehicle: carboxymethylcellulose (CMC) 100 % of control

CCCc1nc2c(=O)n(C3OC(CO)C(O)C3O)cnc2o1 (stereo unspecified)
inactive: dose: 100.0 mg/kg/injection, schedule: Q01DX005 (ip), vehicle: saline 95 % of control | dose: 200.0 mg/kg/injection, schedule: Q01DX005 (ip), vehicle: saline 91 % of control

OCC(O)C(O)C(O)/C=N\Nc1ccc(Br)cc1 (stereo unspecified)
inactive: dose: 50.0 mg/kg/injection, schedule: Q04DX002 (ip), vehicle: saline with Tween-80 93 % of control | dose: 100.0 mg/kg/injection, schedule: Q04DX002 (ip), vehicle: saline with Tween-80 95 % of control | dose: 200.0 mg/kg/injection, schedule: Q04DX002 (ip), vehicle: saline with Tween-80 87 % of control
